Results from patent US8835467B2, “SIR2 regulation” (Albert Einstein College of Medicine of Yeshiva University, priority 2003, dated 2014).

What was measured:
[1] = target: T1, Yeast SIR2p (Saccharomyces cerevisiae, UniProt P06700); assay: SIR2 nicotinamide base-exchange assay (p53 peptide, HPLC/14C); format: biochemical; conditions: pH 7.6; read-out: Inhibition of exchange rate (%) yeast
T1 construct: made in house
Method: (§1) After 2 hours, aliquots of 10 μL removed at 0, 30, 60, 90 and 120 min. Each aliquot was combined with 50 μL 50 mM ammonium acetate pH 5.0 to quench and assayed by HPLC for deacetylation products and NAD^+. The chromatograms (260 nm) were obtained using 50 mM ammonium acetate pH 5.0 as eluant on a semi-preparative Waters C-18 column (2.0 mL/min flow rate). Peaks for ADPR and 3′-O-Acetyl-ADPR were quantified by integration. The peak for NAD^+ was collected and radiation counted.

[2] = target: T2, Mouse SIR2 enzyme (SIR2α) (Mus musculus, UniProt Q923E4); assay: SIR2 deacetylation assay (p53 peptide, HPLC of ADPR and 3′-O-acetyl-ADPR); format: biochemical
T2 construct: purchased Upstate Group
T2 sequence (Q923E4 1-737): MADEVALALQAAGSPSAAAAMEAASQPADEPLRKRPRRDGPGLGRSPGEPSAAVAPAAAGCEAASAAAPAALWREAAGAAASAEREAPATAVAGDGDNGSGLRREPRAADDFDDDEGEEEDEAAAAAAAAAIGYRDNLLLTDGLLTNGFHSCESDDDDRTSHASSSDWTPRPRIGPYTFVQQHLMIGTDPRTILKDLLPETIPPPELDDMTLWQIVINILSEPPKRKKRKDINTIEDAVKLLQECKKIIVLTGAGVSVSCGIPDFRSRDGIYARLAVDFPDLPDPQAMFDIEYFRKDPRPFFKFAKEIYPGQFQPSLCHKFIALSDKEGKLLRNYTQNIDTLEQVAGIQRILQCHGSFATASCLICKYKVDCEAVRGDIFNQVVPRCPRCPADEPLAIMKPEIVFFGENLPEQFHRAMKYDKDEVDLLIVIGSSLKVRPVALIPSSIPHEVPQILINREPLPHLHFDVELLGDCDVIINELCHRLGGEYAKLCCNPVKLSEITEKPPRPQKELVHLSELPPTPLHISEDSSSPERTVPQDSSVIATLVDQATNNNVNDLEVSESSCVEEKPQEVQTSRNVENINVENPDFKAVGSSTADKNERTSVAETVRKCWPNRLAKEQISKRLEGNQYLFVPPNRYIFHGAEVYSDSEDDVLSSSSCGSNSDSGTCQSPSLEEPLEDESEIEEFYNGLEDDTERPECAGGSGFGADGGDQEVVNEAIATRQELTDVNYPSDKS
Method: as §1
(§2) Reactions were as above but base reactions contained 5 mM of pyrazinamide, isonicotinamide, thionicotinamide, or benzamide. Reactions were carried out (2 hours for AF2 and yeast enzymes and 3 hours for mouse enzyme) at 37° C. and quenched by addition of 80 μL 50 mM ammonium acetate pH 5.0. Product formation was quantified by HPLC. […] Rates were compared with controls lacking added base.

[3] = target: T1, Yeast SIR2p; assay: as above; format: biochemical
Method: as §1, §2

[4] = target: Yeast Sir2 (Saccharomyces cerevisiae, UniProt P06700); assay: Sir2 catalyzed base exchange with H4 N-terminal peptide; format: biochemical
Method: Measurements were performed by methods described in Sauve and Schramm (2003) with the H4N-terminal peptide (AGG(AcK)GG(AcK)GMG(AcK)VGA(AcK)RHSC) (Imai et al., 2000) as substrate.

[5] = system: Sir2-dependent transcriptional silencing at telomeres; assay: Telomeric reporter gene silencing, serial dilution spot assay; format: cell-based, yeast
Method: (§3) The photographs were taken after 2 to 3 days incubation. […] Isogenic strains UCC4562 (DOT1) and UCC4554 (dot1Δ) (Singer et al., 1998) are shown in each panel (top and bottom rows, respectively). […] The phenotype of strain CCFY10028 (top row) is compared to an isogenic sir2 derivative (bottom row). The sir2 deletion strain was generated by PCR-mediated gene disruption using a Nat-MX selectable marker (Tong et al., 2004).
(§4) The deletion strains were generated by PCR-mediated gene disruption using a Nat-MX selectable marker (Tong et al., 2004). Silencing at TEL-VR::URA3 is reported by survival on FOA-containing media and at HMR::TRP1 is detected by reduced growth on media lacking tryptophan.
We examined the effect of isonicotinamide on the expression of reporter genes integrated at each of the chromosomal loci that are subject to Sir2-dependent transcriptional silencing. Silencing of a telomeric URA3 gene (TEL-VIIL-URA3) confers resistance to 5-fluoroorotic acid (5-FOA). […] In this strain, silencing is reduced by dispersion of the Sir proteins from the telomeres (van Leeuwen et al., 2002).

[6] = system: Sir2-dependent transcriptional silencing at the silent mating-type loci (HMR, HML); assay: Silent mating-type locus reporter silencing, spot assay; format: cell-based, yeast
Method: as §3, §4
The effect of isonicotinamide on Sir2 activity at the silent mating-type loci was measured in an HMR: TRP1 strain by growth on medium lacking tryptophan (FIG. 8b). Silencing of TRP1 decreases growth on Trp^− media.

T1 sequence (P06700 whole entry): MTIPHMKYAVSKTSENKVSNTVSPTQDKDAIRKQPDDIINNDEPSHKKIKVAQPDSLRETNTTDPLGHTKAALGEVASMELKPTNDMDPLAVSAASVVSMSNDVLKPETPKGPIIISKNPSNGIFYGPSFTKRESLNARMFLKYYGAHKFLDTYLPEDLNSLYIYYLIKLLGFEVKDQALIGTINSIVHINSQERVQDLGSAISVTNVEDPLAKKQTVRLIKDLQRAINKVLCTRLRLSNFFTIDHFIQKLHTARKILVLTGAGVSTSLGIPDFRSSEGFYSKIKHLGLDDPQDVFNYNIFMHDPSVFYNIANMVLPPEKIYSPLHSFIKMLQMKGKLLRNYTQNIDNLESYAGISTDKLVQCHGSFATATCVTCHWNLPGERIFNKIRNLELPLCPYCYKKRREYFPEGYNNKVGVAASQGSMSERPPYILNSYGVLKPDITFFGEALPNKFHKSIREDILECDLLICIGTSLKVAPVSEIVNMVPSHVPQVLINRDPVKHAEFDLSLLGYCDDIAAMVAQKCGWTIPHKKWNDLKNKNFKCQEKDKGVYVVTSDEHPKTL
Chain of Yeast Sir2 (P06700 whole entry): as above

**Q.** What does the source list for NC(=O)c1ccncc1 [Isonicotinamide]?
**A.** inhibition at 42000 µM [1]: 40%; inhibition at 5000 µM [2]: 18%; inhibition at 5000 µM [3]: 0%; inhibition at 42000 µM ([3]; pH 7.6): 5%; effect on base exchange ([4]; 125 μM [carbonyl-14C]nicotinamide, increasing isonicotinamide): Base exchange is inhibited; Ki ([4]; read-out: Ki for isonicotinamide): 60 mM; increase in colony growth on FOA-containing medium ([5]; TEL-VIIL-URA3, DOT1 strain UCC4562, 25 mM isonicotinamide): ~10 fold; enhanced silencing of telomeric reporter (growth on FOA) ([5]; TEL-VIIL-URA3, dot1Δ strain UCC4554, 25 mM isonicotinamide): > 10^3 fold; growth phenotype on FOA medium ([5]; TEL-VIIL-URA3, 25 mM isonicotinamide added to medium with 5 mM nicotinamide): intermediate growth phenotype; increase in colony growth on FOA-containing medium ([5]; TEL-VR-URA3, pnc1Δ strain, 25 mM isonicotinamide): > 10^4 fold; colony survival on non-selective medium ([5]; YPD control medium, 25 mM isonicotinamide): no effect; silencing of ADE2 integrated at TEL-VR ([5]; data not shown): increased; effect on telomeric reporter gene ([5]; npt1Δ strain, 25 mM isonicotinamide): enhances the expression of a telomeric reporter gene; Sir2 activity at HML ([6]; HML::URA3 strains UCC3515 and UCC4574, FOA-containing medium, data not shown): increased Sir2 activity at HML; growth phenotype of isogenic sir2Δ strain ([6]; HMR::TRP1, Trp− medium): Neither compound altered the growth phenotype; reduction in growth on Trp− medium ([6]; HMR::TRP1, pnc1Δ strain, 25 mM isonicotinamide): 10^3 fold
